Reference: patent publication US20220332839A1, “USE OF PRG4 TO TREAT CANCER” (Lubris LLC, priority 2019, published 2022)

What was measured:
Assay type in all cases: cell-based, human
MDA-MB-231 cells [1] = assay: In vitro scratch assay (migration); conditions: 36 h
Method: 5×10^5 MDA-MB-231 cells were seeded in each well of a 12-well tissue culture plate and grown overnight to near confluency in complete growth medium and then overnight serum starved by incubating with 0.2% FBS-containing DMEM medium in a 5% CO2 humidified incubator at 37° C. incubator. […] Scratch closure in each well was followed by imaging the scratch and surrounding cells in each well at 3× objective of a DIC microscope (Olympus IX70) coupled to a digital camera at time 0 h and 36 h after initiating the scratch. Five images were captured along the vertical axis of the scratch for each experimental condition. The width of each scratch was measured at three different positions per image for a total of 15 measurements using ImageJ (National Institutes of Health, USA), and then averaged per experimental condition. The width average at 36 h was subtracted from the width average at 0 h and expressed relative to that at 0 h width for each experimental condition to obtain scratch closure, and expressed as percent scratch closure.

[2] = tested on: MDA-MB-231 cell-derived organoids; assay: Laminin/actin fluorescence staining of 3D organoids; conditions: 8 day old organoids; absence or presence of TGFβ
Method: For immunofluorescence analysis of 3D-organoids, 600 MDA-MB-231 cells were grown within 80 μL of 50% Matrigel on top of 80 μL of 33% Matrigel coat in each well of ultra-low attachment 8-well chamber slides (Millipore-Sigma, USA). After DIC imaging on Day 8, the live multicellular structures were fixed with 4% formaldehyde, followed by permeabilization using 0.5% ice-cold Triton X-100 solution and blocking using 10% bovine serum albumin (BSA) in phosphate-buffered saline (PBS). For immunofluorescence analysis of monolayer cell culture, cells were seeded onto wells of a Falcon 8-well chamber culture slides (Corning Incorporated, USA), followed by fixing and permeabilization as described for the 3D cultures, and blocking with 5% BSA and 5% calf serum in PBS. Laminin and CD44 in cells were visualized by subjecting the three-dimensional or monolayer cultures to indirect immunofluorescence using a rat anti-laminin antibody (Abcam, Canada) and rat anti-CD44 antibody (Thermo Fisher, Canada) as the primary antibody, respectively, and Alexa 647-conjugated anti-rat IgG (ThermoFisher, Canada) as the secondary antibody. Actin in cells was visualized by incubating the fixed cultures with tetramethylrhodamine isothiocyanate (TRITC)-conjugated phalloidin (Millipore-Sigma, Canada). The DNA binding dye bisbenzimide (Hoechst 33342; Invitrogen, Canada) was used to detect nuclei. […]

MDA-MB-231 cells [3] = assay: In vitro trans-well invasion assay
Method: Overnight 0.2% FBS-containing DMEM incubated, i.e. serum-starved, MDA-MB-231 cells were used for the transwell invasion using polycarbonate filters (24-well insert, pore size 8 μm; BD Biosciences, Canada). Prior to addition of cells, each insert was placed within a well of a 24-well tissue culture plate and equilibrated with 0.5 mL serum-free DMEM, added both to the upper and lower chambers at 37° C. for 2 h. The equilibration media was then gently removed and upper chamber surface of the insert was coated with 50 μL of 3% Matrigel and allowed to solidify at 37° C. for 1 h. 1×10^5 serum-starved MDA-MB-231 cells were resuspended in 0.5 mL of serum-free DMEM and added to the upper Matrigel-coated chamber. 500 μL complete growth medium alone or containing specific reagents, as described in the respective figure descriptions, was added to the lower chambers. Cells were allowed to invade the matrix for 12 h at 37° C. after which non-adherent cells were removed by PBS washing of cell layers on the upper chamber three times. During the second wash a cotton tip applicator was used to gently scrape away the adherent cells on the upper surface of the membrane. Invading cells were fixed by immersing the transwell inserts in 100% methanol for 10 minutes at −20° C., followed by staining with 0.5% crystal violet dye (EMD Millipore, Canada) for 1 h at room temperature. Eight randomly chosen fields of each stained membrane were imaged at 10× objective of a DIC microscope (Olympus IX70) coupled to a digital camera. Cell numbers were obtained by counting the number of crystal violet stained cells in each field using a handheld counter. The average cell numbers for all images per treatment conditions were calculated and used for further statistical analysis. Each experiment was performed at least three independent times.

[4] = tested on: MDA-MB-231 cell-derived organoids; assay: Three-dimensional Matrigel culture, proportion of spherical vs invasive organoids
Method: For three-dimensional culture assays, 50 μl of ice-cooled 33% growth factor-reduced Matrigel (Corning Incorporated, USA) in complete growth medium, consisting of DMEM containing 10% FBS, penicillin, streptomycin and amphotericin B (Invitrogen, Canada), was added per well of a 96-well flat bottom, ultra-low attachment plate (BD Biosciences, Canada) followed by storing the plate for 1 hour in a 5% CO2 humidified incubator at 37° C. to allow formation of a 1 mm-thick Matrigel bed in the well. Next, approximately 400 isolated MDA-MB-231 cells, suspended in 50 μl ice-cooled 50% Matrigel in complete growth medium, were layered on top of the Matrigel bed per well of the 96-well plate and incubated inside 5% CO2 humidified incubator at 37° C. One hour post addition and 37° C. incubation of Matrigel-cells suspension, 50 μl of complete growth medium was added to cover the solidified Matrigel-cells mixture. The following day and, every third day, the three-dimensional cultures received 50 μl of fresh complete growth medium without or with specified reagents as listed in the figure descriptions. On Day 8 of culture, differential interference contrast (DIC) images were captured of 8 representative organoids from each well, using light microscopy at 30× objective (Olympus IX70, Canada). […] Number of smooth surfaced organoids without any protrusions, designated as “spherical” were counted out of eight representative images in each well and then percentage of spherical organoids in each condition were plotted in bar graphs. Each experiment was performed at least three independent times for statistical analyses.

Row | Substance | scratch closure, TGFβ vs control well (MDA-MB-231 cells [1]; 100 pM TGFβ) | basal lamina (laminin) status and actin organization [2] | invasion of cells, stimulus alone vs untreated control (MDA-MB-231 cells [3]; 100 pM TGFβ, 400 μg/mL LMWHA) | effect of TGFβ on LMWHA-induced invasive growth ([4]; 100 pM TGFβ with LMWHA) | invasive growth of organoids, stimulus alone ([4]; 100 pM TGFβ, LMWHA 10, 100 or 400 μg/mL, 8-day) | scratch closure in the absence or presence of TGFβ (MDA-MB-231 cells [1]; 100 μg/mL rhPRG4) | invasion of cells in the absence or presence of TGFβ (MDA-MB-231 cells [3]; 100 μg/mL rhPRG4, 100 pM TGFβ, 12 h) | cell invasion in the presence of LMWHA (MDA-MB-231 cells [3]; 400 μg/mL LMWHA, 5 μg/mL CD44 neutralizing antibody, 100 μg/mL rhPRG4) | TGFβ or LMWHA-induced invasive growth, vector control transfected cells ([4]; 100 pM TGFβ or 400 μg/mL LMWHA, 100 μg/mL rhPRG4) | TGFβ-induced invasive growth of organoids ([4]; 100 pM TGFβ, 8-day, rhPRG4 0.1, 10, 100 μg/mL, KI 10 μM, 4-MU 0.5 mM) | LMWHA-induced invasive growth of 4-MU-treated organoids ([4]; 0.5 mM 4-MU, 400 μg/mL LMWHA, 100 μg/mL rhPRG4) | LMWHA-induced invasive growth of organoids ([4]; LMWHA 10-400 μg/mL, 100 μg/mL rhPRG4, KI 10 μM) | TGFβ and LMWHA-induced invasive growth of organoids ([4]; LMWHA 100 or 400 μg/mL, 100 pM TGFβ, CD44 antibody 2.5 μg/mL, rhPRG4 100 μg/mL) | TGFβ-induced invasive growth, rhPRG4 applied to the Matrigel prior to culture ([4]; Matrigel mixed with 100 μg/mL rhPRG4, 100 pM TGFβ) | invasive growth promoted by overexpressed CD44/FLAG ([4]; absence or presence of TGFβ or LMWHA, 100 μg/mL rhPRG4)
1 | TGFβ: recombinant human mature transforming growth factor beta (R&D systems) [reference compound] | increased the scratch closure process | disrupted basement membrane organization | promote the invasion of MDA-MB-231 cells | further enhanced the ability of LMWHA to induce invasive growth | promoted an invasive growth |  |  |  |  |  |  |  |  |  | 
2 | rhPRG4: full-length recombinant human PRG4 (lubricin) glycoprotein produced by CHO-M cells; residues 25-1404 of SEQ ID NO:1 |  | promoted cortical actin organization and solid laminin ring formation |  |  |  | significantly delayed the scratch closure process | blocked the ability of MDA-MB-231 cells to be invasive | able to inhibit breast cancer cell invasion | significantly reversed | drastically repress TGFβ-induced invasiveness | suppressed LMWHA-induced invasive growth | suppressed the ability of LMWHA to promote the invasive growth | suppressed TGFβ and LMWHA-induced invasive growth | sufficient to suppress TGFβ-induced invasive growth | suppressed the ability of overexpressed CD44 to promote invasive growth
